The values below are quoted from earlier work in patent publication US20240124428A1, “HETEROCYCLIC INHIBITORS OF PCSK9” (CARDIO THERAPEUTICS PTY LTD, priority 2020, published 2024).

For data set [1], the target named is T1, CYP3A4 (Homo sapiens, UniProt P08684).
T1 construct: using human liver microsomes; from tissue; host or cells: human liver microsomes
Conditions: data from Evison et al. 2020; cited from earlier work.

Data set [2] addresses T2, CYP2D6 (Homo sapiens, UniProt P10635).
T2 construct: using human liver microsomes; from tissue; host or cells: human liver microsomes
The note with it: data from Evison et al. 2020; cited from earlier work.

For data set [3] the following is noted: data from Evison et al. 2020; conditions not given; cited from earlier work.
Data set [4] has as its target T3, hERG channel (Homo sapiens, UniProt Q12809).
T3 construct: expressed in transfected cells; host or cells: CHO
The note with it: data from Evison et al. 2020; cited from earlier work.

In data set [5] the test system is HepG2 cells. Conditions: data from Evison et al. 2020; read-out: HepG2 cytotoxicity IC50; cited from earlier work.
Data set [6] deals with T4, binding between PCSK9 and the LDL receptor (Homo sapiens, UniProt Q8NBP7).
T4 construct: purchased CircuLex
T4 sequence (Q8NBP7 153-692): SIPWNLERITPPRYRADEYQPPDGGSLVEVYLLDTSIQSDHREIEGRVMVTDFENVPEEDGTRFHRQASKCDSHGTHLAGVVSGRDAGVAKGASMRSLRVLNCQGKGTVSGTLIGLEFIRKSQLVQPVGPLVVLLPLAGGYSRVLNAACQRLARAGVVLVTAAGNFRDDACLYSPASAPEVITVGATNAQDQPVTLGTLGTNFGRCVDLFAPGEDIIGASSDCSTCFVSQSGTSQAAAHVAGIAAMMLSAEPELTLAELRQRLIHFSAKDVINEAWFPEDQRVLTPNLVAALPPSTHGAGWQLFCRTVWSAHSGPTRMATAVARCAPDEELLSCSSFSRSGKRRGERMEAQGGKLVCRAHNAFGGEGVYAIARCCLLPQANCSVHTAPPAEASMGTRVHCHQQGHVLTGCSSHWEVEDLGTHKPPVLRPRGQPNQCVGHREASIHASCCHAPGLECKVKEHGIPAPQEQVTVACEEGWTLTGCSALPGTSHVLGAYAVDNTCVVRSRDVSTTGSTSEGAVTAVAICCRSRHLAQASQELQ
T4 sequence (Q8NBP7 31-152 partner limits assumed): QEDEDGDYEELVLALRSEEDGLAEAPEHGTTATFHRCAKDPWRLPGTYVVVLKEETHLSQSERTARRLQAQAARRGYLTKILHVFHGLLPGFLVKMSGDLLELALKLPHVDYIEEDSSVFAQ
Conditions: comparator; data from Evison et al. 2020; read-out: PCSK9-LDLR binding assay IC50; cited from earlier work.

Marks after values point to notes of the source that are not given here.

T2 sequence (P10635 whole entry): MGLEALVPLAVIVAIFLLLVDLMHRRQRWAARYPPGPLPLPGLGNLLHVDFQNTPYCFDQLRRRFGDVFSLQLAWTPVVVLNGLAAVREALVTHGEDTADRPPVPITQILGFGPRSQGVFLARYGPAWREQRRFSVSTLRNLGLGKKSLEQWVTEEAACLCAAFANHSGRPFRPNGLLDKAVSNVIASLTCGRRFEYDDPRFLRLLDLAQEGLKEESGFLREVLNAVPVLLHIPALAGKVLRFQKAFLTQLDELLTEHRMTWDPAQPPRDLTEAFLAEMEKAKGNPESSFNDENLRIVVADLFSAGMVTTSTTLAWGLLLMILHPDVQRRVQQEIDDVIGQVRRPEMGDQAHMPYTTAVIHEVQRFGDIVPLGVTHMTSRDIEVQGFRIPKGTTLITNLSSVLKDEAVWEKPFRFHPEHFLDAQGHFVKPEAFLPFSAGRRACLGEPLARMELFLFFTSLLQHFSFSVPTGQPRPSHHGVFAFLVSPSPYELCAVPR
T3 sequence (Q12809 whole entry): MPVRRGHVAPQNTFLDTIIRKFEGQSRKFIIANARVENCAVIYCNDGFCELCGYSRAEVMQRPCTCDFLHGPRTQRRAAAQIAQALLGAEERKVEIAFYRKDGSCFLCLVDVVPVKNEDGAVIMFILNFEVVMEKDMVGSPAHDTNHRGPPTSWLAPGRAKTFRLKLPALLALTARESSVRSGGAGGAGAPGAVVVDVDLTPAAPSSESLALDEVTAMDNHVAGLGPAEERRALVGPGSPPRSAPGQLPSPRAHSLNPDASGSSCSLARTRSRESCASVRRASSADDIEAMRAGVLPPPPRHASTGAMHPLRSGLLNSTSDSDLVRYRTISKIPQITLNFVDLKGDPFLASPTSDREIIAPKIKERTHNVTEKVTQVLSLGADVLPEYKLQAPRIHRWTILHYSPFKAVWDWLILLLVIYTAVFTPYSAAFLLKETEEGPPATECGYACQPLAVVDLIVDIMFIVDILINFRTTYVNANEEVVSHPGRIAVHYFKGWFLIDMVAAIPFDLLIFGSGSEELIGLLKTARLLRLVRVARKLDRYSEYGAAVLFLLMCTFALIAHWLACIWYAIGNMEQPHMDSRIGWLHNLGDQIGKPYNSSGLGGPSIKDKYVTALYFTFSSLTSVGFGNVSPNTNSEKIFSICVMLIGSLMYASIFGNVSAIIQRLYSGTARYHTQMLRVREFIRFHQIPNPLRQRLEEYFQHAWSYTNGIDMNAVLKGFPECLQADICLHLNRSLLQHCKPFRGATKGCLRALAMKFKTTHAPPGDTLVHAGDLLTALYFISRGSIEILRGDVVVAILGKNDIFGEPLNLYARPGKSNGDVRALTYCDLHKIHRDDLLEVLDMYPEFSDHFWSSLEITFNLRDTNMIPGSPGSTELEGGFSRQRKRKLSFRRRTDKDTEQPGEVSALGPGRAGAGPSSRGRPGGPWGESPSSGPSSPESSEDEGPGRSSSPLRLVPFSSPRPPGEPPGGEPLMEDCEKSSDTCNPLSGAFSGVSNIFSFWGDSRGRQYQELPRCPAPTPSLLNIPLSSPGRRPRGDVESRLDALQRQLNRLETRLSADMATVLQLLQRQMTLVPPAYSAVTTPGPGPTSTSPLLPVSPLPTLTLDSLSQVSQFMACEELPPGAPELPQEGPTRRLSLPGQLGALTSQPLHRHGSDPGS
T1 sequence (P08684 whole entry): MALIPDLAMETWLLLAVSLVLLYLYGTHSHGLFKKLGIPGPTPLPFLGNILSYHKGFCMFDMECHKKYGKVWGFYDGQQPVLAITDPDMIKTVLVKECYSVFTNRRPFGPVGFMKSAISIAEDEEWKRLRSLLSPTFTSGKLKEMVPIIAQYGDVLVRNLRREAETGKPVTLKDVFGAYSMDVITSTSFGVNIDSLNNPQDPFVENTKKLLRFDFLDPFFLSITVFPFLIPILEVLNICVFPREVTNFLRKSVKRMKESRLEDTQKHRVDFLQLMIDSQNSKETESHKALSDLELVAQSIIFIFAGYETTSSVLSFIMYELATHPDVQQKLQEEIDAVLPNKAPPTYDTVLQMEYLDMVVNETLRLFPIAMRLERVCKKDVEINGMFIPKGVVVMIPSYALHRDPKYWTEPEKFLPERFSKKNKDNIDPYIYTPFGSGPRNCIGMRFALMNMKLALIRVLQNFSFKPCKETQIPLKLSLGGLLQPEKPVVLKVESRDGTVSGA

In general, IC50 refers to the concentration that inhibits the measured activity by half. For `Cc1cn(-c2cc(CN3CCC[C@H](N)C3)cc(NC(=O)c3ccc(C)c(Oc4ccccc4)c3)c2)cn1` [3f], the “CYP3A4 (% inhibition at 10 μM)” value in data set [1] was 95.0%. Moreover, in data set [2], the “CYP2D6 (% inhibition at 10 μM)” value is listed as 82.2%. For the same compound, in data set [3], the “AUClast (h*ng/ml)” value was 92.3** h*ng/ml, the “Bioavailability (%)” value was 0.5** %, the “CMax (ng/ml)” value is given as 52.5** ng/ml and the “VSS (L/kg)” value is 3.87** L/kg. Besides, the IC50 in data set [4] is 19 µM. In addition, the IC50 in data set [5] is 5.23 µM. Also, in data set [6], the IC50 was 0.939 µM.
